# Experimental data published in paper PMC8153121, “N-Alkylation of Anthracycline Antibiotics by Natural Sesquiterpene Lactones as a Way to Obtain Antitumor Agents with Reduced Side Effects” (Biomedicines, 2021).
# Like-named read-outs stand apart in the source and are kept apart here.
# Tests used:
# [1] = biological target: T1, cytochrome-c-oxidase complex of the mitochondrial respiratory chain (IV) (Rattus norvegicus, UniProt P00406+P05503+P05505); experiment: Respiratory chain complex IV, OCR of isolated rat heart mitochondria (Seahorse); type: biochemical; conditions: isolated rat heart mitochondria 10 μg/well, compounds at 30 μM
# T1 construct: Rat heart mitochondria were isolated by differential centrifugation; from tissue; host or cells: rat heart mitochondria
# Method: (§1) Rat heart mitochondria were isolated by differential centrifugation using ice-cold buffer containing KCl (120 mM) and HEPES (20 mM), pH = 7.4, and a trypsin inhibitor. The mitochondrial yield ranged from 5 to 10 mg/mL of protein in the heart sediment. Mitochondria were stored in plastic containers at 4 °C.
# (§2) The effect of the compounds on the functioning of the electron transport chain complexes was carried out using an Agilent Seahorse XF96e Analyzer (Seahorse Bioscience, Billerica, MA, USA) according to their ability to change the rate of oxygen uptake by isolated rat heart mitochondria (10 μg/well). The following modulators were used: activators of complex I of the electron transport chain, NADH dehydrogenase,—glutamate/malate; rotenone (2 μM) (Sigma Aldrich, Saint Louis, USA)—a tissue respiration blocker that stops the transfer of electrons from the reduced form of NADH to cytochrome b, was used as complex I inhibitor; potassium succinate ([…]) (Dia-M, Moscow, Russia), which is a substrate of complex II of the electron transport chain, made it possible to assess mitochondrial respiration mediated by succinate dehydrogenase; complex III (ubiquinol-cytochrome c-oxidoreductase) inhibitor—a blocker of cellular respiration antimycin A (Sigma Aldrich, Saint Louis, USA), as well as ascorbate/TMPD (0.5 μM) (Sigma Aldrich, Saint Louis, USA), allowed us to evaluate the cytochrome-c-oxidase mediated respiration of organelles.
# [2] = system: RD (embryonic rhabdomyosarcoma); experiment: MTT cell viability test, RD; type: cell-based, Human; conditions: 72 h, read-out: IC50, RD
# Method: (§3) Human cell cultures of tumor origin (A549 (lung carcinoma), HCT116 (colon adenocarcinoma), MCF7 (breast cancer), RD (embryonic rhabdomyosarcoma)), and the line of non-transformed cells HEK293 (embryonic kidney) provided by the Laboratory of Tumor Cell Genetics at the N.N. Blokhin Russian Cancer Research Institute, as well as by the Institute of Cytology of the Russian Academy of Sciences, were grown in DMEM (Gibco, Scotland, UK) and MEM (Gibco, Scotland, UK) containing fetal calf serum (10% by volume) (ThermoFisher Scientific, Paisley, UK), L-glutamine (2 mM) (Gibco, Scotland, UK), and penicillin-streptomycin (1% by volume) (PanEco, Moscow, Russia).
# (§4) Cellular viability was determined by the MTT test. […] After 24 h of incubation, various concentrations of the test compounds dissolved in DMSO (≤1%) were added to the cell cultures, the solvent was added to the control wells in an equal volume, and then the cells were cultured under the same conditions for 72 h. After the incubation time, MTT (3-(4,5-dimethylthiazol-2-yl)-2,5-diphenyltetrazolium bromide, 5 mg/mL) was added to each well, and the plates were further incubated for 2 h (until a characteristic color appeared). Then, the formazan granules were dissolved in DMSO.
# (§5) Using a plate analyzer (Cytation3, BioTech Instruments Inc., USA), the optical density was determined at λ = 530 nm.
# [3] = system: HeLa cervical tumor cell line; experiment: Glycolysis stress test (Seahorse, extracellular acidification rate); type: cell-based; conditions: HeLa cells, test substances 30 μM
# Method: The ability of the studied compounds to modulate anaerobic glycolysis was investigated using the Agilent Seahorse XF96e Analyzer (Seahorse Bioscience, Billerica, MA, USA) according to the level of hydrogen proton production in the samples on the HeLa cervical tumor cell line by the glycolysis stress test.
# HeLa cells in the exponential growth phase were plated into a 96-well cell culture microplate Seahorse (the density of the cell culture was 3 × 10^4/well). After 24 h, the rate of medium extracellular acidification by cells treated with the test compounds was recorded in real time during the sequential injection of modulators: glucose (10 mM) (Dia-M, Moscow, Russia), oligomycin (1 μM) (Sigma Aldrich, Saint Louis, USA), 2-fluoro-2-deoxy-D-glucose (25 mM) (Sigma Aldrich, Saint Louis, USA). This allowed us to estimate the glycolysis intensity in cells by three main parameters of glycolytic function: glycolysis by adding saturating amounts of glucose to the system, glycolytic capacity by the introduction of oligomycin, and glycolytic reserve by using the inhibitor of this glycolysis 2-fluoro-2-deoxy-D-glucose.
# rat heart mitochondria = experiment: Mitochondrial swelling; type: biochemical; conditions: rat heart mitochondria 0.5 mg/mL, compounds at 100 μM, Ca2+ 25 μM
# Method: as §1
# Mitochondrial swelling was recorded by the light transmission of the rat heart mitochondrial suspension at λ = 540 nm using a Victor 3 plate analyzer (Perkin Elmer, Germany). The swelling rate was estimated as △A540/min and was calculated as the tangent of the angle of the steepest dependence curve part △A540 versus time.
# [4] = system: HCT116 (colon adenocarcinoma); experiment: MTT cell viability test, HCT116; type: cell-based, Human; conditions: read-out: IC50, HCT116
# Method: as §3, §4, §5
# [5] = system: HEK293 (embryonic kidney); experiment: MTT cell viability test, non-transformed HEK293; type: cell-based, Human; conditions: read-out: IC50, HEK293
# Method: as §3, §4, §5
# A549 (lung carcinoma) = experiment: MTT cell viability test, A549; type: cell-based, Human; conditions: read-out: IC50, A549
# Method: as §3, §4, §5
# MCF7 (breast cancer) = experiment: MTT cell viability test, MCF7; type: cell-based, Human; conditions: read-out: IC50, MCF7
# Method: as §3, §4, §5
# [6] = biological target: T2, complex II of the electron transport chain (Rattus norvegicus, UniProt P21913+Q641Z9+Q6PCT8+Q920L2); experiment: Respiratory chain complex II, OCR of isolated rat heart mitochondria (Seahorse); type: biochemical; conditions: isolated rat heart mitochondria 10 μg/well, compounds at 30 μM
# T2 construct: Rat heart mitochondria were isolated by differential centrifugation; from tissue; host or cells: rat heart mitochondria
# Method: as §1, §2
# [7] = system: lipid peroxidation (LPO) of rat brain homogenate; experiment: Lipid peroxidation of rat brain homogenate (TBA test); type: biochemical; conditions: rat brain homogenate 2 mg/mL, Fe2+ 500 μM, compound 100 μM
# Method: To obtain a brain homogenate, decapitation of rats anesthetized in advance with CO2 was performed using a guillotine. The brain was homogenized in a buffer containing KCl (120 mM) and HEPES (20 mM) (Gibco, Scotland, UK), pH = 7.4, at 4 °C and centrifuged at 1500 rpm to obtain a supernatant.
# To study the effect of compounds on the process of lipid peroxidation (LPO) of rat brain homogenate, we used a modified version of the TBA test, which is based on the reaction of 2-thiobarbituric acid with the final LPO product—malonic dialdehyde (MDA). According to the experimental scheme, the well of the plate contained the studied compounds (100 μM), rat brain homogenate (2 mg/mL), as well as 500 μM ferrous iron ions (FeSO4 × […]). After 30 min of incubation at 37 °C, TBA reagent was added to all samples, incubated for 90 min at 90 °C, and centrifuged at 6000 rpm for 15 min. The optical density of the selected supernatant was measured on a Victor 3 plate analyzer (Perkin Elmer, Germany […]) at λ = 540 nm.
# [8] = MTT, 72 h, non-transformed cells
# T2 sequence (Q920L2 35-656): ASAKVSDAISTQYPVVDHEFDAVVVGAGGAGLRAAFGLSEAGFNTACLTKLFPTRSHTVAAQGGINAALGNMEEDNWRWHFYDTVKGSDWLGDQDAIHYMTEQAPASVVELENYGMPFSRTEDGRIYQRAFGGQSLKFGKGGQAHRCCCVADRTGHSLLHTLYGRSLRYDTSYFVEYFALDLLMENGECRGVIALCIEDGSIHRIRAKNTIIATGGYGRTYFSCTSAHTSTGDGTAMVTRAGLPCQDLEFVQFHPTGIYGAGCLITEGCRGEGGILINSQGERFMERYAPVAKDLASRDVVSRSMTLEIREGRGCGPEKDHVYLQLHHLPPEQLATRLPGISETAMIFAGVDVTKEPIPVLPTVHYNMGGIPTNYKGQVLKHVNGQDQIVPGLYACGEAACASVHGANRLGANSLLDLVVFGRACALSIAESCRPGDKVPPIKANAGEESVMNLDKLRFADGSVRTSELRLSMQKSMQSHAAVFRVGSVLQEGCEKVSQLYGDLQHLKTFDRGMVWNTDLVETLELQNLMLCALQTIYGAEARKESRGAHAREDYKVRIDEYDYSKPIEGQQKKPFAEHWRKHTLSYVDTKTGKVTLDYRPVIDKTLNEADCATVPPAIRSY
# T2 sequence (P21913 31-282): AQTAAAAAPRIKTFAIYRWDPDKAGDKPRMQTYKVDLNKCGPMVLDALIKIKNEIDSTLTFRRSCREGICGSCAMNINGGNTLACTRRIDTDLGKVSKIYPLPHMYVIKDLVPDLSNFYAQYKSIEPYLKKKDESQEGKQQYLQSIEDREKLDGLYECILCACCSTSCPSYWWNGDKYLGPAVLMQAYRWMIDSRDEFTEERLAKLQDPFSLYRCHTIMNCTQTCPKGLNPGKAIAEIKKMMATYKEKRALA
# T2 sequence (Q641Z9 30-169 limits assumed): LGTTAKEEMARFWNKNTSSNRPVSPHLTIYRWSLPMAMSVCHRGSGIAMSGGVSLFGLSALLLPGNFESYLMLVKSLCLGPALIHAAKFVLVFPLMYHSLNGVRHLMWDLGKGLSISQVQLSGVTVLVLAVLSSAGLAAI
# T2 sequence (Q6PCT8 57-159): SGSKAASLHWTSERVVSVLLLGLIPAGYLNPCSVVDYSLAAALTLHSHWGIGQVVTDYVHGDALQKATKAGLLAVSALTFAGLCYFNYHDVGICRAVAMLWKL
# T1 sequence (P00406 whole entry, other chains not shown): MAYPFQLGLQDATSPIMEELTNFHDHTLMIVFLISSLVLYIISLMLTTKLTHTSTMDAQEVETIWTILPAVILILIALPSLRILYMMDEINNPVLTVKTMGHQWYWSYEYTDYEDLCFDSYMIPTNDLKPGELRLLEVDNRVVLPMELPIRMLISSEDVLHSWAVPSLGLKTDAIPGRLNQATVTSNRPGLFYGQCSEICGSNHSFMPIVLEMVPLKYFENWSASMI
# T1 sequence (P05505 whole entry, other chains not shown): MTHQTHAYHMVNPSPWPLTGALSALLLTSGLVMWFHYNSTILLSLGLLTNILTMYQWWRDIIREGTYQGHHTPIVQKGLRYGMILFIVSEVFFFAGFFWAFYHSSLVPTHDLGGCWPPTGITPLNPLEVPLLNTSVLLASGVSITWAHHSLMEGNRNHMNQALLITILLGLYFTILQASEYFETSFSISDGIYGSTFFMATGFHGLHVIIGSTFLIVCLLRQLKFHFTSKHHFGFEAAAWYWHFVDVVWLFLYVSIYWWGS
SMILES,"Work of Respiratory Chain Complexes, % Decrease in OCR of Control, IV [1]",IC50 ([2]; MTT) [nM],Effect on glycolytic function (extracellular acidification rate) [3],"Mitochondrial Swelling, % of Ca2+-Induced Swelling (rat heart mitochondria)","IC50 ([4]; MTT, 72 h) [nM]","IC50 [5, 8] [nM]","IC50 (A549 (lung carcinoma); MTT, 72 h) [nM]","IC50 (MCF7 (breast cancer); MTT, 72 h) [nM]","Work of Respiratory Chain Complexes, % Decrease in OCR of Control, II [6]",IC50 ([2]; Homo sapiens) [nM],melting point [°C],"IC50 ([4]; Homo sapiens, HCT-116, 72 h) [nM]","IC50 ([5]; Homo sapiens, HEK293, 72 h) [nM]","IC50 (A549 (lung carcinoma); Homo sapiens, A549, 72 h) [nM]","IC50 (MCF7 (breast cancer); Homo sapiens, MCF7, 72 h) [nM]",% of MDA relative to control [7] [%],further results
COc1cccc2c1C(=O)c1c(O)c3c(c(O)c1C2=O)C[C@@](O)(C(C)=O)C[C@@H]3O[C@H]1C[C@H](NC[C@H]2C(=O)O[C@@H]3C[C@@]4(C)CCCC(C)=C4C[C@@H]32)[C@H](O)[C@H](C)O1 [Compound 3b],— (“—” indicates activity absence for compounds (≤10%) in a particular test),590 ± 50,most pronounced ability to reduce the acidification rate of the medium by cells,26.45 ± 7.14%,1010 ± 10,6370 ± 240,1420 ± 50,1240 ± 230,,,,,,,,,
COc1cccc2c1C(=O)c1c(O)c3c(c(O)c1C2=O)CC(O)(C(=O)CO)CC3OC1CC(NCC2C(=O)OC3CC4(C)CCCC(C)C45OC5C32)C(O)C(C)O1 (stereo not shown) [Compound 5a],23.99 ± 4.41%,2470 ± 70,most pronounced ability to reduce the acidification rate of the medium by cells,— (“—” indicates activity absence for compounds (≤10%) in a particular test),2520 ± 20,4500 ± 320,4520 ± 570,3030 ± 70,— (“—” indicates activity absence for compounds (≤10%) in a particular test),,,,,,,,
"COc1cccc2c1C(=O)c1c(O)c3c(c(O)c1C2=O)C[C@@](O)(C(C)=O)C[C@@H]3O[C@H]1C[C@H](NC[C@H]2C(=O)O[C@@H]3CC4=CCC[C@H](C)[C@@]4(C)[C@@H](O)[C@@H]32)[C@H](O)[C@H](C)O1 [Compound 7b, (8S,10S)-8-Acetyl-6,8,11-trihydroxy-10-(((2R,4S,5S,6S)-5-hydroxy-4-((((3S,3aS,4S,4aR,5S,9aR)-4-hydroxy-4a,5-dimethyl-2-oxo-2,3,3a,4,4a,5,6,7,9,9a-decahydronaphtho[2,3-b]furan-3-yl)methyl)amino)-6-methyltetrahydro-2H-pyran-2-yl)oxy)-1-methoxy-7,8,9,10-tetrahydrotetracene-5,12-dione]",46.08 ± 3.42%,,,— (“—” indicates activity absence for compounds (≤10%) in a particular test),,,,,21.04 ± 4.22%,1950 ± 10,155 to 162,200 ± 10,6420 ± 210,2010 ± 90,1900 ± 70,,
"COc1cccc2c1C(=O)c1c(O)c3c(c(O)c1C2=O)C[C@@](O)(C(=O)CO)C[C@@H]3O[C@H]1C[C@H](NC[C@H]2C(=O)O[C@@H]3C[C@@]4(C)CCC=C(C)C4=C[C@@H]32)[C@H](O)[C@H](C)O1 [Compound 8a, (8S,10S)-10-(((2R,4S,5S,6S)-4-((((3S,3aR,8aR,9aR)-5,8a-Dimethyl-2-oxo-2,3,3a,7,8,8a,9,9a-octahydronaphtho[2,3-b]furan-3-yl)methyl)amino)-5-hydroxy-6-methyltetrahydro-2H-pyran-2-yl)oxy)-6,8,11-trihydroxy-8-(2-hydroxyacetyl)-1-methoxy-7,8,9,10-tetrahydrotetracene-5,12-dione]",25.95 ± 4.43%,,,47.84 ± 4.99%,,,,,27.58 ± 4.30%,1030 ± 20,166 to 170,430 ± 20,16400 ± 1070,1870 ± 70,2340 ± 10,,
"COc1cccc2c1C(=O)c1c(O)c3c(c(O)c1C2=O)C[C@@](O)(C(=O)CO)C[C@@H]3O[C@H]1C[C@H](N)[C@H](O)[C@H](C)O1 [a, doxorubicin, reference compound]",37.73 ± 0.34%,,,116.20 ± 10.98%,,,,,70.54 ± 0.64%,,,,,,,236.68 ± 13.06,"IC50 ([2]; Homo sapiens, MTT): 290 ± 20 nM; IC50 ([4]; Homo sapiens, HCT-116, 72 h, MTT, 72 h): 140 ± 10 nM; IC50 ([5]; Homo sapiens, HEK293, 72 h, MTT, 72 h, non-transformed cells): 6780 ± 760 nM; Work of Respiratory Chain Complexes, % Decrease in OCR of Control, II ([6]; listed as doxorubicin): more than 70%; IC50 (A549 (lung carcinoma); Homo sapiens, A549, 72 h, MTT, 72 h): 380 ± 20 nM; IC50 (MCF7 (breast cancer); Homo sapiens, MCF7, 72 h, MTT, 72 h): 460 ± 30 nM"
"COc1cccc2c1C(=O)c1c(O)c3c(c(O)c1C2=O)C[C@@](O)(C(C)=O)C[C@@H]3O[C@H]1C[C@H](N)[C@H](O)[C@H](C)O1 [b, daunorubicin, reference compound]",— (“—” indicates activity absence for compounds (≤10%) in a particular test),,,40.98 ± 3.86%,,,,,72.12 ± 0.96%,630 ± 30,,120,12300 ± 1170,330 ± 10,840 ± 170,226.05 ± 6.60,"Work of Respiratory Chain Complexes, % Decrease in OCR of Control, II ([6]; listed as daunorubicin): more than 70%"
